The record followed here is PubChem BioAssay AID1552 (Sanford-Burnham Center for Chemical Genomics, 2009).

Calls of active or inactive are those of the source. How the calls were made is not given here. Where only a bound is given, the exact number is not on record here.

Sequence of Ubiquitin-conjugating enzyme E2 N (Homo sapiens) (P61088 whole entry, looked up): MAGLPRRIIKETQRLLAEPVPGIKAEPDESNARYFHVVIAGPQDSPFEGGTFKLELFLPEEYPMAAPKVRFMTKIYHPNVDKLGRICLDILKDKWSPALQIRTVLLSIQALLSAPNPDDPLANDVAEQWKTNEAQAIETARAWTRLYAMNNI

The experiment addresses Ubiquitin-conjugating enzyme E2 N (Homo sapiens) (UniProt P61088). Briefly: NMR detection of UBE2N ligand binding – biophysical, purified protein (AID 1552). Particulars: NMR binding to purified UBE2N.
A word on the Kd: it is the free concentration of one partner at which half of the binding sites on the other are occupied at equilibrium, for simple one-to-one binding. With `CCN1C(=O)N(CO)C2C1N(C)C(=O)N2C` (stereo not given), the Kd is > 4 mM (inactive).

Regarding `Nc1ccccc1C(=O)N1CCNC(=O)C1`, the Kd was > 4 mM (inactive).

For `C[C@]12CCC3C(CC[C@]4(O)C[C@@H](O)CC[C@]34C=O)[C@@]1(O)CCC2C1=CC(=O)OC1` (stereo not given in full), the Kd was > 4 mM (inactive).

In the case of `c1cncc(C(N2CCOCC2)N2CCOCC2)c1`, the Kd was > 4 mM (inactive).

Regarding `CC(C)c1c(O)c(-c2cc3c(c(C(C)C)c2O)CCC2C(C)(C)CCC[C@]32C)cc2c1CCC1C(C)(C)CCC[C@]21C` (stereo not given in full), the Kd was > 4 mM (inactive).

`O=S(=O)(NCc1ccco1)c1cccc2cccnc12`: the Kd is > 4 mM (inactive).

`O=C(Cn1cncn1)c1ccc(F)c(F)c1`: the Kd was > 4 mM (inactive).

Turning to `OC[C@H]1O[C@@H](Oc2ccc(O)cc2)[C@H](O)[C@@H](O)[C@@H]1O`, the Kd is > 4 mM (inactive).

`NN1C(=O)/C(=C/c2ccc(O)c(O)c2)SC1=S`: the Kd was > 4 mM (inactive).

Turning to `CN(C)C(=S)Nc1ccccc1N1CCOCC1`, the Kd is > 4 mM (inactive).

For the compound `C=CC(C1=CC(=O)C(OC)=CC1=O)c1ccc(O)cc1` (stereo not given), the Kd is > 4 mM (inactive).

`O=C1NCC(=O)N2CCc3ccccc3C12` (stereo not given): the Kd is > 4 mM (inactive).

In the case of `Cn1nc(C(=O)N2CCCC2)c2ccccc2c1=O`, the Kd is > 4 mM (inactive).

Regarding `Cc1noc(C)c1C(=O)Nc1sc(C)c(C)c1C#N`, the Kd is > 4 mM (inactive).

For `COc1ccc(Cl)cc1NC(=O)C(N)=O`, the Kd was > 4 mM (inactive).

As to `CC(=O)c1ccc(-n2ccnc2)cc1`, the Kd is > 4 mM (inactive).

As for `CN(C)c1nc(N)nc(-c2nc3ccccc3s2)n1`, the Kd was > 4 mM (inactive).

With `O=C1CNCc2[nH]c3ccccc3c2N1c1ccccc1`, the Kd is > 4 mM (inactive).

For `O=C(c1ccccc1-c1ccccc1)N1CCOCC1`, the Kd is > 4 mM (inactive).

In the case of `O=C(Oc1ccc2c(c1)CCC2)N1CCOCC1`, the Kd is > 4 mM (inactive).

For the compound `CC(=O)Oc1ccc(N2C(=O)C3C4C=CC(O4)C3C2=O)cc1` (stereo not given), the Kd is > 4 mM (inactive).

As to `OCCNc1nc2ccc(Cl)cc2[nH]1`, the Kd is > 4 mM (inactive).

In the case of `Cc1cc(C(=O)NCc2ccccc2Br)no1`, the Kd is > 4 mM (inactive).

For `Nc1ccc2c(c1)OCCO2`, the Kd is > 4 mM (inactive).

As for `O=S1(=O)NC(=NCc2ccccc2)c2ccccc21`, the Kd was > 4 mM (inactive).

For the compound `C=C1C(=O)O[C@@H]2C[C@@]3(C)CCC[C@H](C)C3=C[C@H]12`, the Kd was > 4 mM (inactive).

In the case of `Nc1ncnc2c1ncn2CCN1CCCCC1`, the Kd was > 4 mM (inactive).

In the case of `Cc1cc(C(=O)Nc2sc3c(c2C#N)CCC3)no1`, the Kd is > 4 mM (inactive).

Consider `Cc1cc(NC(=O)CSc2ccnc(=O)[nH]2)no1`, for which the Kd was > 4 mM (inactive).

With `O=C(N1CCOCC1)N1CCN(c2ccccn2)CC1`, the Kd is > 4 mM (inactive).

Take `Cc1nc2ccccc2c(=O)n1CCCO`: the Kd is > 4 mM (inactive).

As to `COc1cc(-c2coc3cc(OCc4ccccc4)c(OC)c(O)c3c2=O)cc(O)c1OC`, the Kd is > 4 mM (inactive).

Take `CCOC(=O)c1csc(N)n1`: the Kd is > 4 mM (inactive).

Take `COC(=O)c1cccc(Cn2nnc3ccccc3c2=O)c1`: the Kd was > 4 mM (inactive).

In the case of `NC(=O)c1cn(-c2ccccc2)nc1-c1cccnc1`, the Kd is > 4 mM (inactive).

With `CC(=O)Nc1ccc(C(=O)NC2CCSC2=O)cc1` (stereo not given), the Kd was > 4 mM (inactive).

`NCCc1c[nH]c2ccccc12`: the Kd was > 4 mM (inactive).

As to `CC(C)NC(=S)NCc1cnn(C)c1`, the Kd was > 4 mM (inactive).

Regarding `OC1CNCc2cc3c(cc21)OCCO3` (stereo not given), the Kd was > 4 mM (inactive).

`COC(=O)[C@@H]1OC(=O)C2OC23[C@@]1(C)CCC1[C@]2(C)C(C[C@@H](O)[C@]13C)C(C)(C)[C@H](OC(C)=O)C[C@@H]2OC(C)=O` (stereo not given in full): the Kd was > 4 mM (inactive).

For the compound `Cc1cc(NC(=O)c2cc(C)on2)no1`, the Kd was > 4 mM (inactive).

`Nc1ccc(S(=O)(=O)Nc2nccs2)cc1`: the Kd is > 4 mM (inactive).

In the case of `Cn1cnc2c1c(=O)[nH]c(=O)n2C`, the Kd is > 4 mM (inactive).

With `O=C(O)CCS(=O)(=O)c1ccccc1`, the Kd was > 4 mM (inactive).

For the compound `CCOCC(=O)NCc1n[nH]c(=O)c2ccccc12`, the Kd is > 4 mM (inactive).

Turning to `COc1ccc(NC(=O)c2ccc[n+]([O-])c2)cc1`, the Kd was > 4 mM (inactive).

As for `NC(=O)CC1NC(=O)c2ccccc21` (stereo not given), the Kd is > 4 mM (inactive).

Consider `COC(=O)C[C@H]1C2(C)CC34OC5(C)O[C@@]6([C@H](OC)C(OC(=O)C(C)C)[C@]7(C)C(/C(=C(/OC)C(C)C)C(=O)O[C@H]7c7ccoc7)[C@@]6(O5)[C@H](OC)[C@@]3(OC)C2OC(C)=O)[C@]14C` (stereo not given in full), for which the Kd is > 4 mM (inactive).

Regarding `OC1CCN(c2nccc(C(F)(F)F)n2)CC1`, the Kd was > 4 mM (inactive).

Consider `O=C(O)CCn1cncn1`, for which the Kd was > 4 mM (inactive).

Turning to `O=c1c2c(nc3nc(COc4ccccc4)[nH]n13)CCC2`, the Kd was > 4 mM (inactive).

Regarding `CC(=O)c1sc(NC(=O)C=C(C)C)nc1C`, the Kd is > 4 mM (inactive).

Take `CS(=O)(=O)N1CCN(C(=O)Cc2cccs2)CC1`: the Kd was > 4 mM (inactive).

Regarding `COc1cc2cc[n+]3cc4c(OC)c(OC)ccc4cc3c2cc1OC`, the Kd was > 4 mM (inactive).

Turning to `OCc1sccc1-n1cccc1`, the Kd was > 4 mM (inactive).

With `Cc1cc(C(=O)NCc2cccs2)cs1`, the Kd was > 4 mM (inactive).

In the case of `CSc1nnc2[nH]c(=O)cc(N)n12`, the Kd is > 4 mM (inactive).

With `Cc1cc(C(=O)NCc2cccnc2)no1`, the Kd was > 4 mM (inactive).

For the compound `COC(=O)c1ccccc1NC(=O)c1cc[n+]([O-])cc1`, the Kd was > 4 mM (inactive).

As to `O=C1C(=O)N(CNc2ncccn2)c2ccccc21`, the Kd is > 4 mM (inactive).

On to `c1cncc(Nc2nc(-c3cccnc3)cs2)c1`, for which the Kd is > 4 mM (inactive).

As for `COc1ccccc1NC(=O)c1cc[n+]([O-])cc1`, the Kd is > 4 mM (inactive).

`O=C(c1cccnc1Cl)N1CCOCC1`: the Kd is > 4 mM (inactive).

As for `CC(C)=CCc1c2c(c(O)c3c(=O)c(O)c(-c4ccccc4)oc13)C=CC(C)(C)O2`, the Kd was > 4 mM (inactive).

Turning to `Cc1[nH]c2ccccc2c1C(=O)CSc1ncn[nH]1`, the Kd was > 4 mM (inactive).

`Cn1nnc2cc(C(=O)NC3=NCCS3)ccc21`: the Kd is > 4 mM (inactive).

Take `O=C(O)Cn1nc(-c2ccccc2)c2ccccc2c1=O`: the Kd is > 4 mM (inactive).

With `COC1C(O)C(O[C@H]2CC[C@]3(C=O)C4C(CC[C@]3(O)C2)[C@@]2(O)CC[C@H](C3=CC(=O)OC3)[C@@]2(C)C[C@H]4OC(C)=O)OC(C)C1OC(C)=O` (stereo not given in full), the Kd was > 4 mM (inactive).

`O=c1c(Cl)c(NCCO)ncn1-c1ccccc1`: the Kd was > 4 mM (inactive).

As to `CC(C)(C)NC(=O)N1CCC(C(=O)O)CC1`, the Kd is > 4 mM (inactive).
